The target of the test is T1, Notum (Homo sapiens, UniProt Q6P988, C330S).
T1 sequence (Q6P988 81-451 C330S): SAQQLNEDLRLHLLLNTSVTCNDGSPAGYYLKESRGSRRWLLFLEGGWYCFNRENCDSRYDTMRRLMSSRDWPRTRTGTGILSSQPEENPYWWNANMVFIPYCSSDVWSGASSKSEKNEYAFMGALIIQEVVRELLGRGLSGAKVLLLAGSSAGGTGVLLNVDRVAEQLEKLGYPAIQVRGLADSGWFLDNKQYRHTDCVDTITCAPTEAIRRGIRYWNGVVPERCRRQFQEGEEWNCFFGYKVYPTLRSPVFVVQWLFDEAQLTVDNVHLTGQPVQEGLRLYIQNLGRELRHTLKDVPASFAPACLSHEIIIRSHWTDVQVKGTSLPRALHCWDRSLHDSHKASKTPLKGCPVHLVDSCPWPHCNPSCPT
Put plainly: X-ray crystal structure ([…] Å); thermal shift (Tm […] to […] °C); OPTS enzyme inhibition IC50. It is filed as biochemical.

As for `CC(=O)NCCc1c[nH]c2ccc(O)cc12` [ASE, N‐acetylserotonin], the 50% inhibitory concentration (IC50) stood at 94 µM.

A word on the IC50: it is the concentration that gives 50% inhibition.

For the origin of these results see publication PMC7027535 (Journal of Pineal Research, 2020).
